{
  "source": "patent US20040006043A1",
  "about": "“Methods, pharmaceutical compositions and pharmaceutical kits for enhancing the therapeutic efficiency of cancer chemotherapeutic agents” (RAMOT UNIVERSITY AUTHORITY FOR APPLIED RESEARCH & …, priority 2002, published 2004)",
  "key": {"[1]": {"test_system": "C26 cells", "experiment": "Survival of BALB/c mice inoculated with C26 tumor cells", "format": "in vivo", "conditions": "C26 cells in right-hind foot pad", "procedure": "BALB/c mice, female, 8 weeks old at the initiation of experiments were tested. Experiments were performed with 35 mice that were divided into 5 groups.\nMitomycin C (MMC), injection dose of 10 mg/Kg body.\nC26 cells (originating from mouse colon carcinoma) were grown in cell culture flask essentially as described above under the in vitro experiments. At day 0 of the experiment, the cells were harvested, washed several times with PBS and at the final wash with Hank's buffer, counted and immediately injected subcutaneously into the right-hind foot pad of the mice. The injected dose was 5×10^5 cells/30 μl.\nSaline and the chemotherapeutic formulations were administered on days 5, 12 and 19 of the experiment, by injection into the tail vein. All the injected volumes were 0.1 ml. Lithium, at 1 mM, was given in the drinking water continuously throughout the experiment, from the day of tumor inoculation.\n35 mice, inoculated with tumor cells, were divides into groups and each group received a different treatment, as described hereinabove and is presented in Table 2 above. The animal survival was monitored continuously, from the first day of tumor inoculation.\nFIG. 8 presents the animal survival, expressed in percentages of the total number of animals in the group."}, "[2]": {"conditions": "Lithium 1 mM; cited from earlier work"}, "[3]": {"test_system": "C6 cells", "conditions": "doxorubicin efflux, absence of a chemosensitizer", "procedure": "Cells were grown in monolayers as described above. Several days prior to an experiment the cells (at a density in the range of 5×10^4-5×10^5 cells/ml) were seeded into 6 multiwell culture plates. The experiments were performed when the cells reached confluency.\nAt the end of the incubation the media was removed and the cells were incubated with “drug free media”, which consisted of either buffer alone, for cells loaded with drug only, or buffer that contained the chemosensitizer used at the same dose as in the incubation, for the cells loaded with the drug and the chemosensitizer. This replacement of the loading with the “drug free media” was performed in order to create the driving force for drug efflux from the cell into that external media. At designated periods (time points), the external media was collected and thereafter replaced by fresh “drug free media”, in order to maintain a unidirectional flux, from the cell out. The drug concentration was measured in each of the collected media, and in the cells at the end of the experiment."}},
  "data": [
    {"compound": "CO[C@@]12[C@H](COC(N)=O)C3=C(C(=O)C(C)=C(N)C3=O)N1C[C@@H]1N[C@@H]12", "note": "[Free MMC, Mitomycin C]", "values": [
      {"measurement": "day on which all animals were dead", "setting": "[1]; MMC 10 mg/Kg i.v. on days 5, 12, 19", "result": 33, "unit": "days"},
      {"measurement": "day on which animals started dying", "setting": "[1]; MMC 10 mg/Kg i.v. on days 5, 12, 19, Lithium 1 mM in drinking water where given", "result": 29, "unit": "days"}
    ]},
    {"compound": "[Li]", "note": "[Lithium]", "values": [
      {"measurement": "in vivo safety of the in vitro dose", "setting": "[2]", "result": "within the in vivo safe range"}
    ]},
    {"compound": "COc1cccc2c1C(=O)c1c(O)c3c(c(O)c1C2=O)C[C@@](O)(C(=O)CO)C[C@@H]3O[C@H]1C[C@H](N)[C@H](O)[C@H](C)O1", "note": "[F-DOX, doxorubicin]", "values": [
      {"measurement": "fraction of total intracellular drug load diffused out of the cell after 5 minutes", "setting": "[3]", "result": "about 30%"},
      {"measurement": "time for complete depletion of the cell from the drug", "setting": "[3]", "result": "≤ 3", "unit": "h"}
    ]}
  ]
}
